Columns and labels:
C. reinhardtii (CC-503) = test: C. reinhardtii growth inhibition by HPPD inhibiting herbicides; assay type: cell-based, Chlamydomonas reinhardtii
From the text: Bleaching herbicides with a mode of action in plastoquinone or tocopherol biosynthesis can inhibit algae growth (Tables 14 and 15). These effects can be partly reversed by intermediates of homogentisic acid biosynthesis (Table 14). To generate mutations conferring “coumarone-derivative herbicide” resistance in HPPD or HST genes, chemical or UV mutagenesis can be used. Especially unicellular organisms like Chlamydomonas reinhardtii or Scenedesmus obliquus are useful for identifying dominant mutations in herbicide resistance.
(§1) Algae cells of Chlamydomonas reinhardtii strains CC-503 and CC-1691 (Duke University, Durham, USA) are propagated in TAP medium (Gorman and Levine (1965) PNAS 54: 1665-1669) by constant shaking at 100 rpm, 22° C. and 30 μmol Phot*m^−2*[…] light illumination. Scenedesmus obliquus (University of Gottingen, Germany) are propagated in algae medium as described (Boger and Sandmann, (1993) In: Target assays for modern herbicides and related phytotoxic compounds, Lewis Publishers) under same culturing conditions as mentioned for Chlamydomonas. Compound screening is performed at 450 μmol Phot*m^−2*[…] illumination.

[1] = tested on: Chlamydomonas strain CMr06; test: Growth inhibition of Chlamydomonas strains (tolerance); assay type: cell-based, Chlamydomonas reinhardtii; conditions: read-out: IC50 of growth inhibition
Experimental: as §1
(§2) Sensitive strains of Chlamydomonas reinhardtii or Scenedesmus obliquus (Tables 14, 15) are mutated with 0.14 […] (EMS) for 1 h as described by Loppes (1969, Mol Gen Genet. 104: 172-177) Tolerant strains are identified by screening of mutagenized cells on solid nutrient solution plates containing “coumarone-derivative herbicides” or other HPPD inhibiting herbicides at wildype-lethal concentrations. Examples of the data obtained are depicted in Table 16 and FIG. 2.

[2] = tested on: Chlamydomonas strain CMr10; test: as above; assay type: cell-based, Chlamydomonas reinhardtii; conditions: read-out: IC50 of growth inhibition
Experimental: as §1, §2

[3] = tested on: Chlamydomonas strain CMr15; test: as above; assay type: cell-based, Chlamydomonas reinhardtii; conditions: read-out: IC50 of growth inhibition
Experimental: as §1, §2

[4] = tested on: Chlamydomonas strain CMr13; test: as above; assay type: cell-based, Chlamydomonas reinhardtii; conditions: read-out: IC50 of growth inhibition
Experimental: as §1, §2

[5] = tested on: Chlamydomonas strain CC1961 wild-type; test: as above; assay type: cell-based, Chlamydomonas reinhardtii; conditions: read-out: IC50 of growth inhibition
Experimental: as §1, §2

[6] = tested on: Chlamydomonas strain CMr05; test: as above; assay type: cell-based, Chlamydomonas reinhardtii; conditions: read-out: IC50 of growth inhibition
Experimental: as §1, §2

[7] = tested on: Chlamydomonas strain CMr04; test: as above; assay type: cell-based, Chlamydomonas reinhardtii; conditions: read-out: IC50 of growth inhibition
Experimental: as §1, §2

Chlamydomonas HPPD1 = Chlamydomonas HPPD1 (Chlamydomonas reinhardtii, UniProt A0A2K3DET7); test: HPPD activity assay, wildtype enzyme; assay type: biochemical; conditions: calculated from IC50 with Cheng-Prusoff equation, read-out: dissociation constant Ki
Experimental: HPPD produces homogentisic acid and CO2 from 4-hydroxyphenylpyruvate (4-HPP) and O2. The activity assay for HPPD is based on the analysis of homogentisic acid by reversed phase HPLC.
The assay mixture can contain 150 mM potassium phosphate buffer pH 7.0, 50 mM L-ascorbic acid, 1 μM FeSO4 and 7 μg of purified enzyme in a total volume of 1 ml.
Inhibitors are dissolved in DMSO (dimethylsulfoxide) to a concentration of 20 mM or 0.5 mM, respectively. From this stock solution serial five-fold dilutions are prepared in DMSO, which are used in the assay. The respective inhibitor solution accounts for 1% of the assay volume.
After a preincubation of 30 min the reaction is started by adding 4-HPP to a final concentration of 0.1 mM. The reaction is allowed to proceed for 120 min at room temperature. The reaction is stopped by addition of 100 μl of 4.5 M phosphoric acid.
Activities are normalized by setting the uninhibited enzyme activity to 100%. IC50 values are calculated using non-linear regression.
The assay mixture can contain 150 mM potassium phosphate buffer pH 7.0, 50 mM L-ascorbic acid, 100 μM Catalase (Sigma-Aldrich), 1 μM FeSO4 and 0.2 units of purified HPPD enzyme in a total volume of 505 μl. […]
HGA is detected electrochemically at 750 mV (mode: DC; polarity: positive) and quantified by integrating peak areas (Empower software; Waters).
Inhibitors are dissolved in DMSO (dimethylsulfoxide) to a concentration of 0.5 mM. […] IC50 values are calculated using non-linear regression.
Using methods which are described in the above examples or well known in the art, purified, recombinant wildtype HPPD enzymes are characterized with respect to their kinetic properties and sensitivity towards HPPD inhibiting herbicides. Apparent michaelis constants (Km) and maximal reaction velocities (Vmax) are calculated by non-linear regression with the software GraphPad Prism 5 (GraphPad Software, La Jolla, USA) using a substrate inhibition model. […] Weighted means (by standard error) of Km and IC50 values are calculated from at least three independent experiments.

Sequence of Chlamydomonas HPPD1 (A0A2K3DET7 entry or part of it): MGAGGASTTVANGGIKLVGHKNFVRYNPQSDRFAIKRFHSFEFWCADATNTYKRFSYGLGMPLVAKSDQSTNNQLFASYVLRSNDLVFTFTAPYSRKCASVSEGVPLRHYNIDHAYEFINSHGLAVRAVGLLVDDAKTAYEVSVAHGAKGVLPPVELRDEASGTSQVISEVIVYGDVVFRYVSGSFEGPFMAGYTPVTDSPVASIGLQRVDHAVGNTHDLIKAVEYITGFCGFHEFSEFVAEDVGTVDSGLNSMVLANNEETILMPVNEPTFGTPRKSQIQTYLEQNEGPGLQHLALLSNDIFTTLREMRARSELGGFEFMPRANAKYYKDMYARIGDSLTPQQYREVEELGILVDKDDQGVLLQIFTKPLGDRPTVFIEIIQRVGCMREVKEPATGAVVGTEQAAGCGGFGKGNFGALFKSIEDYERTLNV

SMILES	Growth inihibition [%] C. reinhardtii (CC-503) (C. reinhardtii (CC-503); c 1 * 10^−4 M) [%]	Growth inihibition [%] C. reinhardtii (CC-503) + Homogentisic acid (C. reinhardtii (CC-503); c 1 * 10^−4 M) [%]	Growth inihibition [%] C. reinhardtii (CC-503) (C. reinhardtii (CC-503); c 5 * 10^−4 M) [%]	Growth inihibition [%] C. reinhardtii (CC-503) + Homogentisic acid (C. reinhardtii (CC-503); c 5 * 10^−4 M) [%]	IC50 [1] [µM]	IC50 [2] [µM]	IC50 [3] [µM]	IC50 [4] [µM]	IC50 [5] [µM]	IC50 [6] [µM]	IC50 [7] [µM]	Ki (Chlamydomonas HPPD1) [µM]
Cc1c(C(=O)c2cnn(C)c2O)ccc(S(C)(=O)=O)c1C1=NOCC1 [Topramezone, reference compound]	100	80	100	100	860	920	230	200	140	710	390	0.038
CC1=NOC(c2c(Cl)ccc(C3=C(O)c4ncccc4N(CC(F)F)S3(=O)=O)c2Cl)C1 (centres unmarked) [Inhibitor 1, 3-[2,4-dichloro-3-(3-methyl-4,5-dihydroisoxazol-5-yl)phenyl]-1-(2,2-difluoroethyl)-2,2-dioxo-pyrido[3,2-c]thiazin-4-ol]					> 1000	> 1000	> 1000	810	620	> 1000	> 1000	0.029

From patent US20130053243A1, “PLANTS HAVING INCREASED TOLERANCE TO HERBICIDES” (BASF SE, priority 2010, published 2013)
